This note sets out measurements from EP0786471A1, “Arthrichitin, a process for its production and its use” (HOECHST AKTIENGESELLSCHAFT, priority 1996, dated 1997).

Each structure is given as a SMILES string.

For one data set, the system named is Plasmopara viticola. Description: in vivo activity against phytopathogenic fungi.
The nature of data set [1]: solubility (physico-chemical properties). The format is physicochemical. From the text:
The physico-chemical properties of Arthrichitin are as follows : Appearance : Colorless solid Solubility : Soluble in methanol and dimethylsulfoxide; insoluble in petroleum ether, chloroform, ethylacetate and water. Molecular weight : 642 (FAB MS) (Matrix : 3-nitrobenzyl alcohol) Molecular formula : C33H46N4O9 (calculated : […]; [observed : m/z 643.3341 (M + H)^+ (HR FAB-MS; matrix : MeOH/NBA; internal reference : polyethylene glycol 600); calculated for C33H47N4O9 : 643.3345] Melting point : 245°C [α]D : + 24.12°C (c 0.475, MeOH) HPLC retention time : 5.4 minutes [4 x (30 + 100) mm 10µ ODS ®Hypersil column; mobile phase : 35% acetonitrile in 0.02 M aqueous sodium phosphate buffer, pH 7.0; flow rate : 1 ml/min.; UV detection : 220 nm] UV λmax (MeOH) : 247, 266, 310 nm; no shift with acid and alkali IR (KBr) : Figure 1 ^1H NMR (300 MHz, DMSO-d6) : Figure 2 ^13C NMR (75 MHz, DMSO-d6) : Figure 3

A further data set has as its system Erysiphe graminis. Description: in vivo activity against phytopathogenic fungi.
For data set [2], the system named is Neurospora crassa strain SGF 18. Kind of data set: modified screening method of detecting cell-wall active compounds. Type of data set: cell-based. The procedure: Fermentation carried out for about 90 hours under submerged condition in shake flasks in order to achieve the maximum activity is particularly preferred. The progress of fermentation and the formation of Arthrichitin of the present invention can be detected by the modified screening method of detecting the cell-wall active compounds [J. Antibiotics, 39(11), 1620-1622, 1986] using the Neurospora crassa strain SGF 18.
The production of Arthrichitin was monitored by using the modified screening method of detecting cell-wall active compounds [J. Antibiot., 39 (11), 1620-22, 1986] using the Neurospora crassa strain SGF 18 and growing it in a medium containing the following nutrients : soluble starch 1.5%; Yeast extract 0.4%; K2HPO4 0.1 %; MgSO4.7H2O 0.05%; D-Sorbitol 7.5% (Osmotic stabilizer); L-Sorbose 2.5% (Glucan synthesis inhibitor) and agar 1.5%.

The test system of a further data set is Pyricularia oryzae. The note with it: in vivo.
A further data set relates to Septoria nodorum. Description: in vivo activity against phytopathogenic fungi.
In data set [3] the test system is Pseudocercosporella herpotrichoides. Kind of data set: in vivo activity against phytopathogenic fungi.
The test system of another data set is Botrytis cinerea. Kind of data set: in vivo activity against phytopathogenic fungi.
Another data set has as its system Phytophthora infestans. The conditions noted are these: in vivo.

As to `CCCCCCCCC(C)C1OC(=O)C(CO)NC(=O)C(C(=O)c2c[nH]c3ccccc23)NC(=O)C(CCC(=O)O)NC(=O)C1C` (centres unmarked) [Arthrichitin], the “activity against Plasmopara viticola” value in the data set with Plasmopara viticola is reported as “very good activity”. Further, the Solubility entry is “insoluble” in data set [1] (chloroform); “Soluble” in [1] (dimethylsulfoxide); “insoluble” in data set [1] (ethylacetate); “Soluble” in [1] (methanol); “insoluble” in [1] (petroleum ether); “insoluble” in data set [1] (water). Further, in the data set with Erysiphe graminis, the “activity against Erysiphe graminis” value is reported as “very good activity”. Also, the “activity as cell wall inhibiting compound” value in data set [2] is listed as “activity as cell wall inhibiting compound”. In addition, the “activity against Pyricularia oryzae” value with Pyricularia oryzae is listed as “very good activity”. In addition, in the data set with Septoria nodorum, the “activity against Septoria nodorum” value is “very good activity”. In addition, the “activity against Pseudocercosporella herpotrichoides” value in data set [3] was “very good activity”. Besides, the “activity against Botrytis cinerea” value in the data set with Botrytis cinerea was “very good activity”. Further, the “activity against Phytophthora infestans” value in the data set on Phytophthora infestans was “very good activity”.
